# US4550186A, “Binuclear copper (II) carboxylates formed from amine-carboxyboranes” (Duke University, priority 1983, dated 1985)
# Where two headings read alike, the source gives them in different places.
# Tests used:
# [1] = Organ weights; assay type: in vivo, rat; settings: for Organ Weight: 14 days 10 mg/Kg/Day, Treated
# From the text: Periodic animal weights were obtained during the experiments and expressed as a percentage of the animal's weight on day 0. After dosing for 14 days with test drugs, selected organs were excised, trimmed of fat and weighed. The organ weights were expressed as a percentage of the total body weight of the animal.
# [2] = tested on: purine de novo synthesis of Ehrlich ascites cells; test: In vivo formate incorporation into purines; parameters: species or system mouse
# Experimental: CF1 male mice (~30 g) were implanted with 2×10^6 Ehrlich ascites tumor cells, intraperitoneally on Day 0. Compound I was suspended by homogenation in 0.05% polysorbate.80-water and administered intraperitoneally at 10 and 20 mg/kg for 9 days to determine its effectiveness for inhibition of tumor growth. Mice were sacrificed on Day 10, and the ascites fluid was collected from the peritoneal cavity. The volume and ascrit (packed cell volume) were determined for each animal and the percent inhibition of tumor growth was calculated. For the metabolic studies, mice were treated on Days 8 and 9 with 10 mg/kg of Compound I, intraperitoneally. […]
# Carbamyl phosphate synthetase activity was determined using the reaction medium of Kalman et al [Am. […] Citrulline formed from ornithine was measured at 490 nm by the method of Archibald [J. Biol. Chem., 156, 121 (1944)]. […] The ^14 CO2 generated in 15 min was trapped in 1M KOH and counted. Thymidylate synthetase activity was determined using a post-mitochondrial supernatant (9000 g×10 min) and 5 μCi of 5-^3 H-deoxyuridine monophosphate (14 Ci/mmol) according to the method of Kampf et al [ J. Med. Chem., 19, 903 (1976)]. ^14 C-Formate incorporation into purines was determined by the method of Spassova et al [Biochem. Pharmacol., 25, 923 (1976)] using 0.5 μCi of ^14 C-formic acid (52.0 mCi/mmol). […] The Rf value for xanthine monophosphate was scraped and counted. […]
# [3] = tested on: deoxyribonucleic acid polymerase; test: In vivo nuclear deoxyribonucleic acid polymerase activity; parameters: species or system mouse
# Experimental: (§1) CF1 male mice (~30 g) were implanted with 2×10^6 Ehrlich ascites tumor cells, intraperitoneally on Day 0. Compound I was suspended by homogenation in 0.05% polysorbate.80-water and administered intraperitoneally at 10 and 20 mg/kg for 9 days to determine its effectiveness for inhibition of tumor growth. Mice were sacrificed on Day 10, and the ascites fluid was collected from the peritoneal cavity. The volume and ascrit (packed cell volume) were determined for each animal and the percent inhibition of tumor growth was calculated. For the metabolic studies, mice were treated on Days 8 and 9 with 10 mg/kg of Compound I, intraperitoneally. The animal was sacrificed on Day 10 and the ascites fluid harvested. The in vitro metabolic studies were performed at […] final concentration of Compound I.
# (§2) In vitro and in vivo nuclear deoxyribonucleic acid polymerase activity was determined on isolated Ehrlich ascites cell nuclei. The incubation was that described by Sawada et al [Can. Res., 34, 3341 (1974)] except that [methyl-^3 H] deoxythymidine triphosphate (82.4 Ci/mmol) was used. The acid insoluble nucleic acid was collected on GF/F filters and counted. Nuclear ribonucleic acid polymerase activities were determined on enzymes isolated from nuclei. […] The acid insoluble ribonucleic acid was collected on nitrocellulose filters and counted.
# [4] = target: T1, messenger ribonucleic acid polymerase (Mus musculus, UniProt P08775+Q8CFI7); test: In vivo messenger ribonucleic acid polymerase activity
# T1 construct: enzymes isolated from nuclei; endogenous in cells; host or cells: Ehrlich ascites tumor cell nuclei, ammonium sulfate fraction
# Experimental: as §1, §2
# [5] = 10 mg/kg/day I.P. on Days 8 and 9
substance,measurement,setting,value
{Cu[(CH3)3 N.BH2 CO2 ]2.(CH3)3 N.BH2 COOH} [Compound I],Adrenal weights,[1]; after drug administration,not altered
same,Organ Weight,[1]; rat Adrenal,0.031 gm
same,Organ Weight,[1]; rat Brain,1.666 gm
same,Organ Weight,[1]; rat Chyme,5.9333 gm
same,Organ Weight,[1]; rat Feces,8.633 gm
same,Organ Weight,[1]; rat Heart,1.021 gm
same,Organ Weight,[1]; rat Kidney,2.167 gm
same,Organ Weight,[1]; rat Large Intestine,4.233 gm
same,Organ Weight,[1]; rat Liver,10.600 gm
same,Organ Weight,[1]; rat Lung,1.933 gm
same,Organ Weight,[1]; rat Small Intestine,6.433 gm
same,Organ Weight,[1]; rat Spleen,0.501 gm
same,Organ Weight,[1]; rat Stomach,1.766 gm
same,14C-Formate incorporation into purines,[2]; [5],59 ± 6 % Control
same,Purine de novo synthesis inhibited,[2]; 10 day Ehrlich ascites cells,41%
same,Nuclear deoxyribonucleic acid polymerase activity reduced,[3],62%
same,Deoxyribonucleic acid polymerase activity,[3]; [5],38 ± 5 % Control
same,Messenger ribonucleic acid polymerase activity,[4],not affected
same,Messenger ribonucleic acid polymerase activity,[4]; [5],96 ± 9 % Control
